# Like-named read-outs stand apart in the source and are kept apart here.
# Assays:
# [1] = monkey, intravenous 3 mg/kg; cited from earlier work
# [2] = system: mouse-adapted DENV-2 strain D2S10; details: for Survival at day 20: IV, 19 days after challenge
# [3] = rat, injected 5 mg/kg; cited from earlier work
# [4] = monkeys, oral 10 mg/kg; cited from earlier work
# [5] = rats, oral 10 mg/kg; cited from earlier work
# [6] = man, intravenous administration; cited from earlier work
# [7] = dogs, oral 10 mg/kg; cited from earlier work
# [8] = cited from earlier work
# CYP1A2 = biological target: T1, CYP1A2 (Homo sapiens, UniProt P05177); details: cited from earlier work
# T1 sequence (P05177 1-516): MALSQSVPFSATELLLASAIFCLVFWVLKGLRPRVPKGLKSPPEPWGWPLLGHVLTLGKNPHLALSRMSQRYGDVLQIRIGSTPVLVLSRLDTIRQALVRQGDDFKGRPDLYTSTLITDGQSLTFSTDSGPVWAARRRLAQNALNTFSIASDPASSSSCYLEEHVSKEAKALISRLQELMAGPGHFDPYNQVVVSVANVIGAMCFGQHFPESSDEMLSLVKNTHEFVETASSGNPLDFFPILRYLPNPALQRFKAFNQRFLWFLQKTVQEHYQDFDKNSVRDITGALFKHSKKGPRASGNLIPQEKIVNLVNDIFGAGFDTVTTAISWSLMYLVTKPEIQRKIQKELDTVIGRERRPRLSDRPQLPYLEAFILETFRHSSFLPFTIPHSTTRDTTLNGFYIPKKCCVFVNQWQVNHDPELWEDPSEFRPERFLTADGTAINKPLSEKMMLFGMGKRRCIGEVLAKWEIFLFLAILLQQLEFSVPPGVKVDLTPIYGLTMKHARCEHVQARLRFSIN
# [9] = cited from earlier work; remark: listed apart in the source
# [10] = dog, intravenous 3 mg/kg; cited from earlier work
smiles,measurement,setting,value
"COc1ccc2[nH]cc(CCNC(C)=O)c2c1 [Melatonin, N-acetyl-5-methoxytryptamine]",apparent elimination half-life,[1],33.9 min
same,Survival at day 20,[2]; 75 mg/kg body weight,4/6
same,Survival at day 20,[2]; 100 mg/kg body weight,6/6
same,Survival at day 20,[2]; 150 mg/kg body weight,6/6
same,protection effects versus Dengue virus induced condition,"[2]; 100 and 150 mg/Kg/day, 19 days treatment",Complete survival
same,apparent elimination half-life,[3],19.8 min
same,absolute bioavailability,[4],high
same,absolute bioavailability,[5],moderate
same,elimination half-life,[6],about 40 minutes
same,absolute bioavailability,[7],high
same,solubility in water,[8],1200 to 2400 µg/mL
same,enzyme mediating 6-hydroxylation and O-demethylation,CYP1A2,mainly CYP1A2 mediated
same,median (range) elimination half life,"[9]; healthy volunteers, oral capsules 20, 30, 50, 100 mg, across all doses",51.7 (29.5-63.2) minutes
same,unchanged melatonin renal clearance,[9]; human,lower than 1%
same,time of rapid decrease in serum melatonin,[9]; oral 3 mg/volunteer,240 min
same,time to increase in serum melatonin after oral administration,[9]; oral 3 mg/volunteer,≤ 20 min
same,half-life in blood,[9]; oral 100 mg,around 41 minutes
same,time to maximum blood and saliva concentrations,[9]; oral 100 mg,60 min
same,AUC,[9]; oral capsules 20 mg,1102 to 13616 ng/mL/min
same,AUC,[9]; oral capsules 30 mg,822 to 2491 ng/mL/min
same,AUC,[9]; oral capsules 50 mg,1812 to 8915 ng/mL/min
same,AUC,[9]; oral capsules 100 mg,4458 to 18229 ng/mL/min
same,"absolute human bioavailability, average","[9]; oral, female",8.6%
same,"absolute human bioavailability, average","[9]; oral, male",16.8%
same,"absolute human bioavailability, range",[9]; oral,1-37%
same,inter-subject variation of AUC of individual subjects,[9]; oral,up to 25 times
same,apparent elimination half-life,[10],18.6 min
